The values that follow come from patent US7291628B2, “Treatment of cocaine abuse using N-substituted derivatives of morphinan” (McLean Hospital Corporation, priority 2001, dated 2007).

The Ki is a dissociation constant, usually derived from enzyme kinetics or from competition with a known ligand.

The structures appear in SMILES notation. “Also recorded” adds a separate entry of the source.

One assay addresses T1, κ opioid receptor (Cavia porcellus, UniProt P41144).
T1 construct: from tissue; host or cells: guinea pig brain membranes
The assay is described as follows: competitive binding assay with [3H]U69,593 in guinea pig brain membranes. Conditions: for affinity for the κ opioid receptor, in words: comparator, if any, as in the value; for increase in affinity at the κ opioid receptor: relative to levorphanol; for κ/δ selectivity: κ versus δ binding.

The target of a further assay is T2, δ opioid receptor (Cavia porcellus, UniProt A0A286XTF2).
T2 construct: from tissue; host or cells: guinea pig brain membranes
The assay is described as follows: competitive binding assay with [3H]naltrindole in guinea pig brain membranes.

The target in the next assay is μ opioid receptor (Cavia porcellus, UniProt A0ACM8Q262). The assay is described as follows: competitive binding assay with [3H]DAMGO in guinea pig brain membranes. Conditions: for affinity for the μ opioid receptor, in words: comparator, if any, as in the value; for Ki: read-out: Ki, μ opioid receptor, [3H]DAMGO, guinea pig brain membranes.

For the compound `Oc1ccc2c(c1)[C@@]13CCCC[C@H]1[C@@H](C2)N(CCCF)CC3` [Compound 3], the Ki was determined as 0.083 nM at κ opioid receptor, 0.85 nM on δ opioid receptor and 0.18 nM on μ opioid receptor. At κ opioid receptor, the “affinity for the κ opioid receptor, in words” value is on record as “high affinity”. Moreover, the “affinity for the μ opioid receptor, in words” value at μ opioid receptor is “high affinity”.
Regarding `COCCN1CC[C@]23CCCC[C@H]2[C@H]1Cc1ccc(O)cc13` [Compound 6], on κ opioid receptor, the inhibition constant (Ki) was found to be 0.094 nM and the “affinity for the κ opioid receptor, in words” value was “high affinity”. Moreover, on μ opioid receptor, the “affinity for the μ opioid receptor, in words” value is listed as “high affinity” and the Ki stood at 0.11 nM.
With `C=CCN1CC[C@]23CCCC[C@H]2[C@H]1Cc1ccc(O)cc13` [Compound 8, levallorphan, reference compound], on κ opioid receptor, the “increase in affinity at the κ opioid receptor” value turned out to be 15 fold. For the same compound, the “change in affinity for the δ opioid receptor, in words” value on δ opioid receptor (relative to levorphanol) is “almost no changes in affinity”. The “change in affinity for the μ opioid receptor, in words” value at μ opioid receptor (relative to levorphanol) was “almost no changes in affinity”.
In the case of `I/C=C/CN1CC[C@]23CCCC[C@H]2[C@H]1Cc1ccccc13` [Compound 34, N-(3-iodoprop-(2E)-enyl)morphinan], at κ opioid receptor, the “affinity for the κ opioid receptor, in words” value is on record as “Ki values in the picomolar range; also recorded: very high affinity”. The “decreased affinity for the κ opioid receptor” value at κ opioid receptor (in comparison to compound 9) came out at 10 fold. Further, the “decreased affinity for the δ opioid receptor” value at δ opioid receptor (in comparison to compound 9) was determined as 43 fold. Moreover, the “affinity for the μ opioid receptor, in words” value on μ opioid receptor is reported as “Ki values in the picomolar range; also recorded: very high affinity”.
Regarding `I/C=C\CN1CC[C@]23CCCC[C@H]2[C@H]1Cc1ccccc13` [Compound 35, N-(3-iodoprop-(2Z)-enyl)morphinan], on κ opioid receptor (relative to 34), the “decreased affinity for the κ receptor” value was determined as 17 fold. Besides, the “decreased affinity for the μ receptor” value at μ opioid receptor (relative to 34) amounted to 100 fold.
Take `Oc1ccc2c(c1)[C@@]13CCCC[C@H]1[C@@H](C2)N(CC1CCC1)CC3` [MCL-101, reference compound]: at κ opioid receptor, the “affinity for the κ opioid receptor, in words” value is “almost the same affinity for the μ and κ opioid receptors as cyclorphan”; the “increase in affinity at the κ opioid receptor” value stood at 30 fold; the κ/δ selectivity worked out at 18 fold. In addition, the “increase in affinity at the δ opioid receptor” value on δ opioid receptor (relative to levorphanol) is on record as 3 fold. Moreover, the “affinity for the μ opioid receptor, in words” value on μ opioid receptor was “almost the same affinity for the μ and κ opioid receptors as cyclorphan”. Also, the “increase in affinity at the μ opioid receptor” value at μ opioid receptor (relative to levorphanol) came out at 2 fold.
Take `Oc1ccc2c(c1)[C@@]13CCCC[C@H]1[C@@H](C2)N(CC1CC1)CC3` [cyclorphan, reference compound]: at κ opioid receptor, the κ/δ selectivity worked out at 4 fold.
